We go through four compounds from US12358899B2, “Thyroid hormone receptor agonists and uses thereof” (XIZANG HAISCO PHARMACEUTICAL CO., LTD., priority 2018, dated 2025).

Data set [1] concerns the target T1, THRα-LBD (Homo sapiens, UniProt P10827).
T1 construct: purchased ThermoFisher
As to the kind of experiment: THR coactivator recruitment assay (LanthaScreen TR-FRET), THRα. The class given is biochemical. As to conditions: for THRα Bmax % (vs T3): maximum activity relative to the maximum activity of 500 nM T3.
Procedure: The coactivator recruitment assay was performed using LanthaScreen™ TR-FRET TR coactivator assay kit (ThermoFisher). […] The diluted test compounds were mixed with the same volume of other reagents (10 μl:10 μl). […] In addition, the selectivity for each compound was normalized for the selectivity of T3 run in the same assay.

For data set [2], the system named is C57BL/6cnc mice. The experiment in a line: Cholesterol-lowering efficacy in trans-fat AMLN diet-induced hypercholesterolemia mouse model. The class given is in vivo. The note with it: for LDL-c / liver TC / plasma TC: daily oral gavage 2 weeks, 0.3-3 mg/kg (Example 7) or 1 and 3 mg/kg; for efficacy in cholesterol reduction compared with MGL-3196: same dose; for ALT / AST: AMLN diet mice, 0.3, 1, 3 mg/kg oral, 2 weeks, MGL-3196 effect at doses greater than 1 mg/kg. As to the method: C57BL/6cnc mice were fed with AMVLN diet containing 40 Kcal % Fat, 20 Kcal % Fructose and 2% Cholesterol (Research Diets, D09100301) for 5 weeks to induce hypercholesterolemia. The cholesterol lowering efficacy of compounds disclosed herein were tested in two separate studies. […] Thyroid hormone T3 (0.1 mg/kg, intraperitoneal injection) was evaluated as a positive control in both studies. The treatment lasted two weeks with daily oral gavage. Blood samples were taken before the dosing on the first day and again at the end of study for detection of plasma cholesterol (TC), triglycerides (TG) and LDL-c. […] At the end of study, the liver tissues were taken for measuring the hepatic TC and TG levels. The compound concentration was quantified in blood, liver and heart.

For data set [3], the system named is C57BL/6cnc mice. As to the kind of experiment: Cholesterol-lowering efficacy in high cholesterol diet-induced hypercholesterolemia mouse model. The data set is classed as in vivo. As to conditions: for compound concentration in heart: at end of study; for compound concentration in heart / blood and liver distribution / efficacy in reducing liver cholesterol compared with MGL-3196 / expression of DIO1 in liver: high cholesterol diet mice; for blood and liver distribution: compound concentration at end of study; for LDL-c / plasma TC / liver TC / liver TG: high cholesterol diet mice, 0.3, 1, 3 mg/kg daily oral gavage; for LDL-c / plasma TC: 2-week treatment; for expression of DIO1 in liver: qPCR, mRNA of THRβ target gene; for liver TC / liver TG: 2 weeks. As to the method:
To further confirm the PD effects of compounds, another diet induced NAFLD mouse model was used. C57BL/6cnc mice were fed with the diet containing 1.5% cholesterol and 0.5% cholic acid (Research Diets, D12109C) for 2 weeks prior to the initiation of treatment. The cholesterol lowering efficacy of compounds disclosed herein was tested in two separate studies. […] Thyroid hormone T3 (0.1 mg/kg, intraperitoneal injection) was evaluated as a positive control in the second study. The treatment lasted two weeks with daily oral gavage. Blood samples were taken at the end of study for plasma cholesterol and LDL-c detection. At the end of study, the liver tissues were taken for measurement of the hepatic cholesterol levels. DIO1 is a THRβ target gene in liver, and its mRNA level reflects the activity of THRO. Therefore, the expression of DIO1 was also quantitated in liver tissue by qPCR to examine the target engagement by these compounds. The compound concentration was quantified in blood, liver and heart.

For data set [4], the target named is T2, CYP 1A2 (Homo sapiens, UniProt P05177).
T2 construct: from tissue; host or cells: human liver microsomes
T2 sequence (P05177 1-516): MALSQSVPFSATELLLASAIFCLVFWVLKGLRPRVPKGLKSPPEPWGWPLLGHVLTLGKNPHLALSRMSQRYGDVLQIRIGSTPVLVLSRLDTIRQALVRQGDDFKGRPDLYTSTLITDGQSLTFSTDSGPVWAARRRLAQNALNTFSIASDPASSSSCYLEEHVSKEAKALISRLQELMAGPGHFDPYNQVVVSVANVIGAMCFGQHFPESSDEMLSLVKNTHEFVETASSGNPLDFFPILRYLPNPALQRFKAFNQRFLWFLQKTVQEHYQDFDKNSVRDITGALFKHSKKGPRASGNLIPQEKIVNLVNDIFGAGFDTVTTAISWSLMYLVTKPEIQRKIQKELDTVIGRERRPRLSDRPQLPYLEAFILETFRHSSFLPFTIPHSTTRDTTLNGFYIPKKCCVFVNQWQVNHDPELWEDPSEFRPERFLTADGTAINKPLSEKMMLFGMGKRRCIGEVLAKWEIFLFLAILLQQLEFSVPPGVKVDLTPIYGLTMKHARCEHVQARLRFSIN
As to the kind of experiment: CYP inhibition in human liver microsome, 1A2. As to conditions: human liver microsomes, substrate phenacetin, top 50 μM; read-out: CYP450 inhibition IC50 1A2. The class given is in vitro ADME. How it is done:
(§1) Test compounds were evaluated for CYP inhibition using human liver microsomes (HLM). Test compounds were 1:3 serially diluted starting at 50 μM to generate 7 different concentrations. After incubation of diluted test compounds with HLM, a substrate cocktail composed of phenacetin (10 uM), amodiaquine (2 uM), diclofenac (5 uM), s-mephenytoin (30 uM), dextromethorphan (5 uM), and midazolam (2 uM) was added to check the remaining CYP activity for CYP 1A2, 2C8, 2C9, 2C19, 2D6 and 3A4. The CYP activity was measured by detecting the peak area of individual metabolites of know CYP substrates using LC/MS/MS. A percentage of inhibition of CYP was calculated at each final concentration of test compound, through which an IC50 was fitted to represent the inhibition potential.

The target in data set [5] is T3, CYP 2C8 (Homo sapiens, UniProt P10632).
T3 construct: from tissue; host or cells: human liver microsomes
T3 sequence (P10632 1-490): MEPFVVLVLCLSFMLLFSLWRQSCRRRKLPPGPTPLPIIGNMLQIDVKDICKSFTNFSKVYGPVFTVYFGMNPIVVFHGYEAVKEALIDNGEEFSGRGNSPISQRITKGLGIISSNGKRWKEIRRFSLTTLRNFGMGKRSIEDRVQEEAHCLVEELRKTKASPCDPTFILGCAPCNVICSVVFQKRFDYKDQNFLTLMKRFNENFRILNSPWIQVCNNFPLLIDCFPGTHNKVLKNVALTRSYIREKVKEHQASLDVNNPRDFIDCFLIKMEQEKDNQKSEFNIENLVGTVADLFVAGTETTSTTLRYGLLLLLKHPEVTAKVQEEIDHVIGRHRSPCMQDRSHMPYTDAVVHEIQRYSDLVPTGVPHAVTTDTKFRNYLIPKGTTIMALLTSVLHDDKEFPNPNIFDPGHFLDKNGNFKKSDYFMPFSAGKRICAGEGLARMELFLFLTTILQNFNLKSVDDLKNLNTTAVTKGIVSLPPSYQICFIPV
The experiment in a line: CYP inhibition in human liver microsome, 2C8. The class given is in vitro ADME. As to conditions: human liver microsomes, substrate amodiaquine, top 50 μM; read-out: CYP450 inhibition IC50 2C8. How it is done:
as §1

Data set [6] addresses T4, CYP 2C9 (Homo sapiens, UniProt P11712).
T4 construct: from tissue; host or cells: human liver microsomes
As to the kind of experiment: CYP inhibition in human liver microsome, 2C9. The data set is classed as in vitro ADME. The note with it: human liver microsomes, substrate diclofenac, top 50 μM; read-out: CYP450 inhibition IC50 2C9. As to the method: as §1

Data set [7] has as its target T5, CYP 2C19 (Homo sapiens, UniProt P33261).
T5 construct: from tissue; host or cells: human liver microsomes
The experiment in a line: CYP inhibition in human liver microsome, 2C19. As to conditions: human liver microsomes, substrate s-mephenytoin, top 50 μM; read-out: CYP450 inhibition IC50 2C19. The class given is in vitro ADME. How it is done:
as §1

Data set [8] addresses T6, CYP 3A4 (Homo sapiens, UniProt P08684).
T6 construct: from tissue; host or cells: human liver microsomes
As to the kind of experiment: CYP inhibition in human liver microsome, 3A4. The class given is in vitro ADME. The note with it: human liver microsomes, substrate midazolam, top 50 μM; read-out: CYP450 inhibition IC50 3A4. As to the method:
as §1

T4 sequence (P11712 whole entry): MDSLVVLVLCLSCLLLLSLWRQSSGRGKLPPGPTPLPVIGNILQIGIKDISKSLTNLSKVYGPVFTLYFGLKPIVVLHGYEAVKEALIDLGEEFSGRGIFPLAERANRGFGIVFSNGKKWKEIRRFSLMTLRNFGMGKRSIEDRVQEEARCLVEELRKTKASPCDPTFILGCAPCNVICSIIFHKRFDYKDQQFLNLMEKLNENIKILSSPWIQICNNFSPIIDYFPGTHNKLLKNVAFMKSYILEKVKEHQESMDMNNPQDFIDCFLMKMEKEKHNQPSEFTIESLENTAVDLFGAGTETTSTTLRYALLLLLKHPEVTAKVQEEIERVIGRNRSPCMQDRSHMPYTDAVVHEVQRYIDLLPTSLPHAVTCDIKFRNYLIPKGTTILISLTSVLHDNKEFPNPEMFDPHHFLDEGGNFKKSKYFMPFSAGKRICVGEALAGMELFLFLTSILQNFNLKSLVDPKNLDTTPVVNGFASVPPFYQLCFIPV
T5 sequence (P33261 whole entry): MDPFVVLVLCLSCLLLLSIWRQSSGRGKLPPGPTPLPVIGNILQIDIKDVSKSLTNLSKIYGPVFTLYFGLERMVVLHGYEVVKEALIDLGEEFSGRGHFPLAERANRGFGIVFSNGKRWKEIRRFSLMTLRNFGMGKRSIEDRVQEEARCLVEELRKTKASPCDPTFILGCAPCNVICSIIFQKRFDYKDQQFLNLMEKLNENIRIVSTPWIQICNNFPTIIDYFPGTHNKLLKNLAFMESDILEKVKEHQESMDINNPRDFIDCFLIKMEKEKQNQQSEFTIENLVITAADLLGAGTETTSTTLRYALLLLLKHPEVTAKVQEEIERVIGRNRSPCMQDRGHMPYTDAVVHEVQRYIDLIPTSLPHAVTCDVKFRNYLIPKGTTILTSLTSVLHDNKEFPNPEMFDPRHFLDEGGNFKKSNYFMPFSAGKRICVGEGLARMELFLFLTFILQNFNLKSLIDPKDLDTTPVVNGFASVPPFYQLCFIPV
T6 sequence (P08684 whole entry): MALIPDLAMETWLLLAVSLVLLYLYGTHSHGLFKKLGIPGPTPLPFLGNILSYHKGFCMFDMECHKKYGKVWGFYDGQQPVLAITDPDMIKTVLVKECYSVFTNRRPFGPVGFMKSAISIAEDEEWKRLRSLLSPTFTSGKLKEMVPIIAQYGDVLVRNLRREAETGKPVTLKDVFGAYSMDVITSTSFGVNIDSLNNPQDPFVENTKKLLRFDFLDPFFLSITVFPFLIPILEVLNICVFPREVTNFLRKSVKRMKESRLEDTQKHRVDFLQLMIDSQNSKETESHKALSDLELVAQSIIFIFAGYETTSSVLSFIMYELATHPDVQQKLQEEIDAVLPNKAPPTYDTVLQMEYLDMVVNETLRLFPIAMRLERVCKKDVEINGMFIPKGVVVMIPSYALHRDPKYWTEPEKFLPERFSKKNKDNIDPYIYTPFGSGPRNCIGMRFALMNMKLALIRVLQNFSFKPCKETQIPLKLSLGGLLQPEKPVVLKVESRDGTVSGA
T1 sequence (P10827 163-410 isoform P10827-2 limits assumed, other chains not shown): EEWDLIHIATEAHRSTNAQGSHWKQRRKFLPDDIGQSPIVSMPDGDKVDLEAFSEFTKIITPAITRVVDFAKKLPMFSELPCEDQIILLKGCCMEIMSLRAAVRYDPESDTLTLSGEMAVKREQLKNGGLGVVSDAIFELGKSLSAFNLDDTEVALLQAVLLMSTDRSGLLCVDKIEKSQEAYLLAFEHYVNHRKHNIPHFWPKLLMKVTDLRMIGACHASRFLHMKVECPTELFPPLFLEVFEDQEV

Turning to `C[C@@H]1CCc2c(Oc3c(Cl)cc(-n4nc(C#N)c(=O)[nH]c4=O)cc3Cl)n[nH]c(=O)c21` (single isomer, unassigned) [Example 41], the EC50 in data set [1] (EC50 class from TR-FRET ratio 520:495 dose response, read-out: THRα binding) was 0.1 to 1 µM. Besides, in data set [1], the “THRα Bmax % (vs T3)” value is listed as 36%. Moreover, in data set [2] (AMLN diet mice), the LDL-c entry is recorded as “significantly reduced”, the “liver TC” value is “significantly reduced”, the “plasma TC” value is “significantly reduced” and the “efficacy in cholesterol reduction compared with MGL-3196” value is reported as “more effective”. The “rank among the compounds in reducing the liver and plasma cholesterol” value in data set [2] (AMLN diet mice, second study, 1 and 3 mg/kg) is reported as “most effective”. Further, in data set [3], the “compound concentration in heart” value was “not detectable”; the “blood and liver distribution” value is on record as “similar”; the “efficacy in reducing liver cholesterol compared with MGL-3196” value (“efficacy in reducing liver cholesterol” for short) is on record as “as effective as MGL-3196”; the LDL-c result is reported as “reduced”. Also, in data set [3], the “plasma TC” value is recorded as “reduced” and the “expression of DIO1 in liver” value is “dose-dependently upregulated”. In addition, in data set [4], the half-inhibitory concentration (IC50) is above 50 µM. The half-maximal inhibitory concentration (IC50) in data set [5] worked out at 3.08 µM. For the same compound, the IC50 in data set [6] was 15.6 µM. Moreover, the IC50 in data set [7] was above 50 µM. In data set [8], the half-inhibitory concentration (IC50) was above 50 µM.

Consider `[2H]C([2H])([2H])C(c1cc(Oc2c(Cl)cc(-n3nc(C#N)c(=O)[nH]c3=O)cc2Cl)n[nH]c1=O)C([2H])([2H])[2H]` [Example 7, 2-(3,5-dichloro-4-((6-oxo-5-(propan-2-yl-1,1,1,3,3,3-d6)-1,6-dihydropyridazin-3-yl)oxy)phenyl)-3,5-dioxo-2,3,4,5-tetrahydro-1,2,4-triazine-6-carbonitrile], for which, in data set [1], the “THRα Bmax % (vs T3)” value was found to be 41%. Further, in data set [2], the ALT result was “no effect” and the AST entry is on record as “no effect”. In data set [2] (AMLN diet mice), the LDL-c entry is “significantly reduced”, the “liver TC” value is recorded as “significantly reduced”, the “plasma TC” value is “significantly reduced” and the “efficacy in cholesterol reduction compared with MGL-3196” value is listed as “comparable efficacy”. Further, the “liver function safety compared with MGL-3196” value in data set [2] (AMLN diet mice, from ALT and AST) was “safer”. Further, in data set [3], the “compound concentration in heart” value is recorded as “not detectable”; the “blood and liver distribution” value is on record as “similar”; the “efficacy in reducing liver cholesterol” value is reported as “as effective as MGL-3196”; the LDL-c result was “reduced”. Moreover, in data set [3], the “plasma TC” value is on record as “reduced”, the “liver TC” value is recorded as “significantly decreased”, the “liver TG” value was “significantly decreased” and the “expression of DIO1 in liver” value is reported as “dose-dependently upregulated”. For the same compound, the IC50 in data set [4] is above 50 µM. Besides, the 50% inhibitory concentration (IC50) in data set [5] was 7.56 µM. The IC50 in data set [6] came out at 30.7 µM. In addition, the IC50 in data set [7] is above 50 µM. In addition, in data set [8], the IC50 was above 50 µM.

`[2H]c1c(Cl)c(Oc2cc(C(C([2H])([2H])[2H])C([2H])([2H])[2H])c(=O)[nH]n2)c(Cl)c([2H])c1-n1nc(C#N)c(=O)[nH]c1=O` [Example 30, 2-(3,5-dichloro-4-((6-oxo-5-(propan-2-yl-1,1,1,3,3,3-d6)-1,6-dihydropyridazin-3-yl)oxy)phenyl-2,6-d2)-3,5-dioxo-2,3,4,5-tetrahydro-1,2,4-triazine-6-carbonitrile]: in data set [1], the “THRα Bmax % (vs T3)” value stood at 34%. In data set [2] (AMLN diet mice), the LDL-c entry is “significantly reduced”, the “liver TC” value was “significantly reduced” and the “plasma TC” value is reported as “significantly reduced”. Also, in data set [3], the “compound concentration in heart” value was “not detectable”; the “blood and liver distribution” value is reported as “similar”; the “efficacy in reducing liver cholesterol” value was “as effective as MGL-3196”; the LDL-c entry is reported as “reduced”. Moreover, in data set [3], the “plasma TC” value is given as “reduced” and the “expression of DIO1 in liver” value was “dose-dependently upregulated”. In addition, the 50% inhibitory concentration (IC50) in data set [4] is above 50 µM. Also, the IC50 in data set [5] was determined as 4.24 µM. Moreover, the 50% inhibitory concentration (IC50) in data set [6] came to 22.1 µM. In addition, the IC50 in data set [7] was above 50 µM. Also, the IC50 in data set [8] is above 50 µM.

`CC(C)c1cc(Oc2c(Cl)cc(-n3nc(C#N)c(=O)[nH]c3=O)cc2Cl)n[nH]c1=O` [MGL-3196, reference compound]: in data set [1], the “THRα Bmax % (vs T3)” value came out at 49%. Moreover, in data set [2], the ALT result is recorded as “increased” and the AST entry is “increased”. Further, in data set [3], the LDL-c result is listed as “reduced”, the “plasma TC” value is listed as “reduced”, the “liver TC” value is on record as “significantly decreased” and the “liver TG” value is “significantly decreased”. Besides, the “expression of DIO1 in liver” value in data set [3] was “dose-dependently upregulated”. Moreover, in data set [4], the half-maximal inhibitory concentration (IC50) is above 50 µM. Besides, in data set [5], the IC50 was 4.31 µM. In data set [6], the IC50 worked out at 18.8 µM. In data set [7], the 50% inhibitory concentration (IC50) is above 50 µM. Besides, the half-maximal inhibitory concentration (IC50) in data set [8] was above 50 µM.
